Data taken from patent US4459290A, “C-23-Modified derivatives of OMT, pharmaceutical compositions and method of use” (priority 1982, dated 1984).
Converted amounts (≈) assume the structure as drawn. Where two headings read alike, the source gives them in different places.

Columns and labels:
[1] = test system: Haemophilus influenzae Holt; assay: MIC, standard agar-dilution assay (Table V); assay type: cell-based; conditions: Haemophilus influenzae
Method: (§1) The MIC's in Tables V and VI were determined by standard agar-dilution assays. The MIC's in Table VII were obtained using a conventional broth-dilution microtiter test.

Escherichia coli TEM = assay: MIC, standard agar-dilution assay (Table V); assay type: cell-based; conditions: Escherichia coli
Method: as §1

[2] = test system: Streptococcus pyogenes C203; assay: MIC, standard agar-dilution assay (Table V); assay type: cell-based; conditions: Streptococcus pyogenes, C203
Method: as §1

[3] = test system: Haemophilus influenzae R252; assay: MIC, standard agar-dilution assay (Table V); assay type: cell-based; conditions: Haemophilus influenzae, R252
Method: as §1

[4] = test system: Staphylococcus aureus S13E; assay: MIC, standard agar-dilution assay (Table V); assay type: cell-based; conditions: Staphylococcus aureus, S13E
Method: (§2) Especially noteworthy is the improved activity against gram-negative bacteria for several derivatives when compared to the activity of OMT. […] The MIC's in Tables V and VI were determined by standard agar-dilution assays. The MIC's in Table VII were obtained using a conventional broth-dilution microtiter test.

[5] = test system: Streptococcus Group D X66; assay: MIC, standard agar-dilution assay (Table V); assay type: cell-based
Method: as §2

[6] = test system: Staphylococcus aureus V41; assay: MIC, standard agar-dilution assay (Table V); assay type: cell-based; conditions: Staphylococcus aureus
Method: as §2

[7] = test system: Klebsiella pneumoniae KAE; assay: MIC, standard agar-dilution assay (Table V); assay type: cell-based; conditions: Klebsiella pneumoniae
Summary of the method: (§3)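 Growth inhibition in liquid medium, in a routine microtiter broth-dilution series, gave the MIC against staphylococci and pasteurellae; the gram-negative enteric strain was tested by conventional agar dilution instead.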

[8] = test system: Staphylococcus epidermidis EPI2; assay: MIC, standard agar-dilution assay (Table V); assay type: cell-based; conditions: Staphylococcus epidermidis; S. epidermidis EPI2; agar dilution; read-out: MIC
Method: as §2

Streptococcus Group 9960 = assay: MIC, standard agar-dilution assay (Table V); assay type: cell-based; conditions: GROUP9960; Streptococcus Group 9960; agar dilution; read-out: MIC
Method: as §2

[9] = test system: Staphylococcus epidermidis EPI1; assay: MIC, standard agar-dilution assay (Table V); assay type: cell-based; conditions: Staphylococcus epidermidis
Method: as §2

Shigella sonnei N9 = assay: MIC, standard agar-dilution assay (Table V); assay type: cell-based
Summary of the method: as §3

[10] = test system: Klebsiella pneumoniae X26; assay: MIC, standard agar-dilution assay (Table V); assay type: cell-based; conditions: Klebsiella pneumoniae, X26
Method: as §2

Escherichia coli EC14 = assay: MIC, standard agar-dilution assay (Table V); assay type: cell-based; conditions: Escherichia coli
Summary of the method: as §3

[11] = test system: Staphylococcus aureus X1.1; assay: MIC, standard agar-dilution assay (Table V); assay type: cell-based; conditions: Staphylococcus aureus, X1.1
Method: as §2

Escherichia coli N10 = assay: MIC, standard agar-dilution assay (Table V); assay type: cell-based; conditions: Escherichia coli
Summary of the method: as §3

[12] = test system: Staphylococcus aureus X400; assay: MIC, standard agar-dilution assay (Table V); assay type: cell-based; conditions: Staphylococcus aureus
Method: as §2

[13] = test system: Streptococcus pyogenes C203; assay: ED50 in mice experimentally infected with S. pyogenes C203 (Table VIII); assay type: in vivo
Method: The C-23 modified derivatives of OMT of this invention have shown in vivo antimicrobial activity against experimental infections. When two doses of test compound were administered to mice experimentally infected with a gram-positive bacterium, S. pyogenes C203, the activity observed was measured as an ED50 value [effective dose in mg/kg to protect 50% of the test animals: see Warren Wick, et al., J. Bacteriol. 81, 233-235 (1961)].

these strains = assay: Activity against the strains of Table VI, agar-dilution; assay type: cell-based; conditions: at the levels tested
Method: as §2

Streptococcus sp. 80 = assay: MIC, broth-dilution microtiter test (Table VII); assay type: cell-based; conditions: Streptococcus sp. 80; broth-dilution microtiter; read-out: MIC
Method: as §2

[14] = test system: Pasteurella multocida 17E; assay: MIC, broth-dilution microtiter test (Table VII); assay type: cell-based; conditions: Pasteurella multocida; P. multocida 17E, bovine isolate; broth-dilution microtiter; read-out: MIC
Summary of the method: (§4)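 MICs were determined two ways: a standard agar-dilution assay for the Enterobacter aerogenes strain, and a conventional broth-dilution microtiter test for Staphylococcus aureus and both Pasteurella multocida strains.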

[15] = test system: Pasteurella multocida 40G; assay: MIC, broth-dilution microtiter test (Table VII); assay type: cell-based; conditions: Pasteurella multocida; P. multocida 40G; broth-dilution microtiter; read-out: MIC
Summary of the method: as §4

[16] = test system: Pasteurella hemolytica 22C; assay: MIC, broth-dilution microtiter test (Table VII); assay type: cell-based; conditions: Pasteurella, P. hemolytica 22C, read-out: MIC
Summary of the method: (§5)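 Broth microdilution, run as a conventional microtiter test, supplied MICs for the gram-positive S. aureus and the Pasteurella isolates. Enterobacter data instead rest on a standard agar-dilution procedure.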

Mycoplasma hyorhinis = assay: MIC, broth-dilution microtiter test (Table VII); assay type: cell-based; conditions: M. hyorhinis; broth-dilution microtiter; read-out: MIC
Method: as §2

[17] = test system: Pasteurella hemolytica 41D; assay: MIC, broth-dilution microtiter test (Table VII); assay type: cell-based; conditions: Pasteurella, P. hemolytica 41D, read-out: MIC
Summary of the method: as §5

[18] = test system: Pasteurella multocida 22A; assay: MIC, broth-dilution microtiter test (Table VII); assay type: cell-based; conditions: Pasteurella multocida; P. multocida 22A; broth-dilution microtiter; read-out: MIC
Summary of the method: as §4

[19] = test system: Pasteurella multocida 68C; assay: MIC, broth-dilution microtiter test (Table VII); assay type: cell-based; conditions: Pasteurella multocida; P. multocida 68C; broth-dilution microtiter; read-out: MIC
Summary of the method: as §4

[20] = test system: Pasteurella multocida 60A; assay: MIC, broth-dilution microtiter test (Table VII); assay type: cell-based; conditions: Pasteurella multocida; P. multocida 60A, avian isolate; broth-dilution microtiter; read-out: MIC
Summary of the method: as §4

Mycoplasma gallisepticum = assay: MIC, broth-dilution microtiter test (Table VII); assay type: cell-based; conditions: Mycoplasmoides gallisepticum; M. gallisepticum; broth-dilution microtiter; read-out: MIC
Method: as §2

Staphylococcus aureus = assay: MIC, broth-dilution microtiter test (Table VII); assay type: cell-based; conditions: Staphylococcus aureus; S. aureus; broth-dilution microtiter; read-out: MIC
Summary of the method: as §4

Mycoplasma synoviae = assay: MIC, broth-dilution microtiter test (Table VII); assay type: cell-based; conditions: Mycoplasmopsis synoviae; M. synoviae; broth-dilution microtiter; read-out: MIC
Method: as §2

[21] = test system: Pasteurella hemolytica 23C; assay: MIC, broth-dilution microtiter test (Table VII); assay type: cell-based; conditions: Pasteurella, P. hemolytica 23C, read-out: MIC
Summary of the method: as §5

[22] = test system: Streptococcus pneumoniae Park I; assay: microbe, parasite or virus in culture; assay type: cell-based; conditions: Streptococcus pneumoniae; read-out: MIC
Method: as §2

Pasteurella multocida = assay: Protection of one-day-old chicks against Pasteurella multocida infection (Table IX); assay type: in vivo; conditions: subcutaneous 30 mg/kg × 2, 1 and 4 hours post-challenge
Method: The C-23 modified derivatives of OMT have also shown in vivo antibacterial activity against infections induced by gram-negative bacteria. Table IX summarizes the results of tests in which illustrative compounds were evaluated against Pasteurella infections in one-day-old chicks. The compounds were administered by subcutaneous injection at a dosage of 30 mg/kg, 1 and 4 hours post-challenge of the chicks with Pasteurella multocida (0.1 ml of a twenty-hour tryptose broth culture of an avian P. multocida given subcutaneously). In the tests, all ten non-medicated infected chicks died within 24 hours of Pasteurella challenge.

[23] = C203, sc, mice, subcutaneous, doses given 1 and 4 hours postinfection, read-out: ED50, Subcutaneous

SMILES	MIC [1]	MIC (Escherichia coli TEM)	MIC [2]	MIC [3]	MIC [4]	MIC [8]	MIC (Streptococcus Group 9960)	MIC (Shigella sonnei N9)	MIC [10]	MIC [11]	ED50 ([13]; C203, po, read-out: ED50, Oral)	ED50 [13, 23]	activity against these strains (these strains)	MIC (Streptococcus sp. 80)	MIC [14]	MIC [15]	MIC [16]	MIC (Mycoplasma hyorhinis)	MIC [17]	MIC [18]	further results
CCC1OC(=O)CC(O)C(C)C(OC2OC(C)C(O)C(N(C)C)C2O)C(CC=O)CC(C)C(=O)C=CC(C)=CC1CSc1n[nH]c(=O)c(=O)n1C (centres unmarked) [Compound 6, 23-Deoxo-23-(1H-5,6-dioxo-4-methyl-1,2,4-triazin-3-yl)thio-OMT]	32 µg/mL (≈ 43.3 µM)	> 128 µg/mL	1 µg/mL (≈ 1.35 µM)	32 µg/mL (≈ 43.3 µM)	4 µg/mL (≈ 5.41 µM)	8 µg/mL (≈ 10.8 µM)	16 µg/mL (≈ 21.7 µM)	> 128 µg/mL	64 µg/mL (≈ 86.6 µM)	4 µg/mL (≈ 5.41 µM)	> 100 mg/kg	13.6 mg/kg	did not show activity	6.25 µg/mL (≈ 8.46 µM)	25 µg/mL (≈ 33.8 µM)	25 µg/mL (≈ 33.8 µM)	50 µg/mL (≈ 67.7 µM)	25 µg/mL (≈ 33.8 µM)	50 µg/mL (≈ 67.7 µM)	25 µg/mL (≈ 33.8 µM)	MIC [5]: 16 µg/mL (≈ 21.7 µM); MIC ([6]; V41): 4 µg/mL (≈ 5.41 µM); MIC [7]: > 128 µg/mL; MIC ([9]; EPI1): 4 µg/mL (≈ 5.41 µM); MIC (Escherichia coli EC14; EC14): > 128 µg/mL; MIC (Escherichia coli N10; N10): > 128 µg/mL; MIC ([12]; X400): 8 µg/mL (≈ 10.8 µM); MIC [19]: 25 µg/mL (≈ 33.8 µM); MIC [20]: 25 µg/mL (≈ 33.8 µM); MIC (Mycoplasma gallisepticum): 6.25 µg/mL (≈ 8.46 µM); MIC (Staphylococcus aureus): 12.5 µg/mL (≈ 16.9 µM); MIC (Mycoplasma synoviae): 3.12 µg/mL (≈ 4.22 µM); MIC [21]: 50 µg/mL (≈ 67.7 µM)
CCC1OC(=O)CC(O)C(C)C(OC2OC(C)C(O)C(N(C)C)C2O)C(CC=O)CC(C)C(=O)C=CC(C)=CC1CSc1nnc(C)o1 (centres unmarked) [Compound 4]	4 µg/mL (≈ 5.75 µM)	32 µg/mL (≈ 46 µM)	0.25 µg/mL (≈ 0.359 µM)	4 µg/mL (≈ 5.75 µM)	0.25 µg/mL (≈ 0.359 µM)	0.5 µg/mL (≈ 0.719 µM)	0.5 µg/mL (≈ 0.719 µM)	64 µg/mL (≈ 92 µM)	8 µg/mL (≈ 11.5 µM)	0.25 µg/mL (≈ 0.359 µM)	> 100 mg/kg	12.6 mg/kg	did not show activity	0.39 µg/mL (≈ 0.56 µM)	6.25 µg/mL (≈ 8.98 µM)	3.12 µg/mL (≈ 4.48 µM)	12.5 µg/mL (≈ 18 µM)	6.25 µg/mL (≈ 8.98 µM)	12.5 µg/mL (≈ 18 µM)	6.25 µg/mL (≈ 8.98 µM)	MIC [22]: 0.06 µg/mL (≈ 0.0862 µM); MIC ([5]; Streptococcus Group D X66, agar dilution, read-out: MIC): 0.5 µg/mL (≈ 0.719 µM); MIC ([6]; S. aureus V41, penicillin-resistant strain, agar dilution, read-out: MIC): 0.5 µg/mL (≈ 0.719 µM); MIC ([7]; K. pneumoniae KAE, agar dilution, read-out: MIC): > 128 µg/mL; MIC ([9]; S. epidermidis EPI1, agar dilution, read-out: MIC): 0.25 µg/mL (≈ 0.359 µM); MIC (Escherichia coli EC14; E. coli EC14, agar dilution, read-out: MIC): > 128 µg/mL; MIC (Escherichia coli N10; E. coli N10, agar dilution, read-out: MIC): > 128 µg/mL; MIC ([12]; S. aureus X400, methicillin-resistant strain, agar dilution, read-out: MIC): 0.5 µg/mL (≈ 0.719 µM); Number of deaths/number treated (Pasteurella multocida): 8/10; MIC [19]: 6.25 µg/mL (≈ 8.98 µM); MIC [20]: 6.25 µg/mL (≈ 8.98 µM); MIC (Mycoplasma gallisepticum): 0.39 µg/mL (≈ 0.56 µM); MIC (Staphylococcus aureus): 1.56 µg/mL (≈ 2.24 µM); MIC (Mycoplasma synoviae): 0.78 µg/mL (≈ 1.12 µM); MIC [21]: 12.5 µg/mL (≈ 18 µM)
